Measurements: ChEMBL document CHEMBL1144606, “Immunomodulatory effects of two sapogenins 1 and 2 isolated from Luffa cylindrica in Balb/C mice” (Bioorg Med Chem Lett, 2007)
Activity calls are given as the source filed them. The rule behind the calls is not given here.

What was measured:
[1] = test system: Mus musculus; test: Immunostimulatory effect against SRBC-induced hormonal response in BALB/c mouse assessed as antibody production at 10 m/kg; type: functional, organism-based
[2] = test system: Mus musculus; test: Immunostimulatory effect against SRBC-inducing hormoral response in BALB/c mouse assessed as antibody production at 100 mg/kg; type: functional, organism-based; parameters: dose 100 mg/kg
[3] = test system: Mus musculus; test: Immunostimulatory effect against SRBC-inducing plaque forming cells in BALB/c mouse assessed as antibody secreting B cells at 10 mg/kg, po relative to control; type: functional, organism-based; parameters: dose 10 mg/kg
[4] = test system: Mus musculus; test: Enhancement of ConA-Stimulated lymphocyte proliferation in BALB/c mouse at 10 mg/kg by MTT assay; type: functional, organism-based; parameters: dose 10 mg/kg
[5] = test system: Splenocyte; test: Enhancement of ConA-stimulated blastogenic responsiveness in BALB/c mouse splenocytes at 10 mg/kg; type: functional, organism-based; parameters: dose 10 mg/kg
[6] = test system: Mus musculus; test: Increased phagocytic index in BALB/c mouse at 10 mg/kg; type: organism-based; parameters: dose 10 mg/kg; conditions: in vivo
[7] = test system: Mus musculus; test: Immunostimulatory effect against SRBC-inducing plaque forming cells in BALB/c mouse assessed as antibody secreting B cells at 100 mg/kg, po relative to control; type: functional, organism-based; parameters: dose 100 mg/kg
[8] = test system: Mus musculus; test: Enhancement of ConA-Stimulated lymphocyte proliferation in BALB/c mouse at 100 mg/kg by MTT assay; type: functional, organism-based; parameters: dose 100 mg/kg
[9] = test system: Splenocyte; test: Enhancement of ConA-stimulated blastogenic responsiveness in BALB/c mouse splenocytes at 100 mg/kg; type: functional, organism-based; parameters: dose 100 mg/kg
[10] = test system: Mus musculus; test: Enhancement of LPS-Stimulated lymphocyte proliferation in BALB/c mouse at 10 mg/kg by MTT assay; type: functional, organism-based; parameters: dose 10 mg/kg
[11] = test system: Splenocyte; test: Enhancement of LPS-stimulated blastogenic responsiveness in BALB/c mouse splenocytes at 10 mg/kg; type: functional, organism-based; parameters: dose 10 mg/kg
[12] = test system: Splenocyte; test: Enhancement of LPS-stimulated blastogenic responsiveness in BALB/c mouse splenocytes at 100 mg/kg; type: functional, organism-based; parameters: dose 100 mg/kg
[13] = test system: Mus musculus; test: Enhancement of LPS-Stimulated of lymphocyte proliferation in BALB/c mouse at 100 mg/kg by MTT assay; type: functional, organism-based; parameters: dose 100 mg/kg

Activity [6]	SMILES	Activity [1]	Activity [2]	Activity [3]	Activity [4]	Activity [5]	Activity [7]	Activity [8]	Activity [9]	Activity [10]	Activity [11]	Activity [12]	Activity [13]
Active	CC1(C)CC[C@]2(C(=O)O)CC[C@]3(C)C(=CC[C@@H]4[C@@]5(C)CC[C@H](O)C(C)(C)[C@@H]5CC[C@]43C)[C@@H]2C1 [OLEANOLIC_ACID]	Active	inactive	Active	Active	Active	Active	Active	Active	Active	Active	–	–
Active	CC1(C)CC[C@]2(C(=O)O)[C@H](O)C[C@]3(C)C(=CC[C@@H]4[C@@]5(C)CC[C@H](O)C(C)(C)[C@@H]5CC[C@]43C)[C@@H]2C1	–	–	Active	Active	Active	Active	Active	Active	–	–	Active	Active
